Square brackets hold non-standard residues; d marks the D form. Peptide text beside a SMILES is read from it.
Tested on: pituitaries
Test: In vitro growth hormone release study (rat pituitary incubation, GH radioimmunoassay)
Type: cell-based
Details: pituitaries of 20 day old female rats, Δ of GH levels between I3, I4 and P2, ± SEM
Protocol: Female rats of the CD-1 strain were housed in a constant temperature room at 24° C. with 14 hours light and 10 hours darkness. The rats were fed Purina brand rat chow ab libitum.
All studies were started between 0800 and 1000 hours.
Pituitaries were removed from 20 day old female rats. Two pituitaries were incubated at 36° C. in 1 ml of lactated Ringer's solution in 10 ml polytetrafluoroethylene beakers in a Dubnoff Shaker (90 cycles/min.). The pituitaries were incubated a total of 4 hours (P1, P2, I3, and I4). After two successive one hour preincubation periods (P1, P2), the peptide was added to the incubation medium hourly for 2 hours (I3, I4).
This in vitro study was performed in triplicate and a standard radioimmunoassay of growth hormone present in the incubation medium was performed in duplicate. The hormonal activity was calculated as the difference (Δ) of growth hormone (GH) levels between I3, I4 and P2, i.e., (I3 -P2) and (I4 -P2). P values were calculated by Students' t test using six growth hormone values for each value recorded.
The growth hormone radioimmunoassay reagents were distributed by the National Institute of Arthritis and […] (NIAMDD) program. The growth hormone values were calculated in terms of nanograms (ng) of a rat standard with a growth hormone potency of 0.61 units/mg.

[1] = peptide 0.1μg, P <0.001 unless otherwise noted

Row | SMILES | In vitro growth hormone release (ΔGH) [1] | In vitro growth hormone release (ΔGH) (peptide 0.3μg, P <0.001) | In vitro growth hormone release (ΔGH) (peptide 1μg, P <0.001) | In vitro growth hormone release (ΔGH) (peptide 10μg, P <0.001)
1 | C[C@H](NC(=O)[C@@H](Cc1c[nH]c2ccccc12)NC(=O)[C@@H](N)Cc1ccc(O)cc1)C(=O)N[C@@H](Cc1c[nH]c2ccccc12)C(=O)N[C@H](Cc1ccccc1)C(N)=O [H2 N--Tyr--D-Trp--Ala--Trp--D-Phe--CONH2, H2 N-Tyr-D-Trp-Ala-Trp-D-Phe-CONH2] (H-Y[dW]AW[dF]-NH2) | 3409 ± 455 ngΔGH/ml incubation medium | 4540 ± 1200 ngΔGH/ml incubation medium | 4611 ± 510 ngΔGH/ml incubation medium | 5000 ± 662 ngΔGH/ml incubation medium
2 | NC(=O)[C@@H](Cc1ccccc1)NC(=O)[C@H](Cc1c[nH]c2ccccc12)NC(=O)[C@H](CO)NC(=O)[C@@H](Cc1c[nH]c2ccccc12)NC(=O)[C@@H](N)Cc1ccc(O)cc1 [H2 N--Tyr--D-Trp--Ser--Trp--D-Phe--CONH2, H2 N-Tyr-D-Trp-Ser-Trp-D-Phe-CONH2] (H-Y[dW]SW[dF]-NH2) | 353 ± 144 ngΔGH/ml incubation medium | – | 3119 ± 413 ngΔGH/ml incubation medium | 3831 ngΔGH/ml incubation medium

Reference: patent publication US4226857A, “Synthetic peptides having pituitary growth hormone releasing activity” (priority 1979, dated 1980)
